Article PMC6017357, “In Vitro Inhibitory Effects of Synthetic Cannabinoid EAM-2201 on Cytochrome P450 and UDP-Glucuronosyltransferase Enzyme Activities in Human Liver Microsomes” (Molecules : A Journal of Synthetic Chemistry and Natural …, 2018)

Target: T1, CYP1A2 (Homo sapiens, UniProt P05177)
T1 construct: from tissue; host or cells: ultrapooled human liver microsomes
T1 sequence (P05177 1-516): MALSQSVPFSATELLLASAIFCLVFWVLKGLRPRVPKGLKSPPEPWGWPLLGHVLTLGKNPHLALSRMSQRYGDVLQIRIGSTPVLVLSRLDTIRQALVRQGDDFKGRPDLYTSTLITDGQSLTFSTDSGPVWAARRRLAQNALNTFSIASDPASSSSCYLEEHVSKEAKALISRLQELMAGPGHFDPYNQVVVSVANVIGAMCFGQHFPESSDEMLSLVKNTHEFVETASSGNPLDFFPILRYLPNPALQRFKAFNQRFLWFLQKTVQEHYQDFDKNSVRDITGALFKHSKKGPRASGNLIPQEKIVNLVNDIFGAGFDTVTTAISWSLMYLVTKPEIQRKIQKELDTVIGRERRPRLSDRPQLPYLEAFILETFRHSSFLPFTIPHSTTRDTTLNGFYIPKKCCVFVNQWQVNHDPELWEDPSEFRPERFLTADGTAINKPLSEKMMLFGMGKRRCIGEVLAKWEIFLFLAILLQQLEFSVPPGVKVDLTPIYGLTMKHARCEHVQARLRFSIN
Assay: CYP1A2-mediated phenacetin O-deethylation in pooled human liver microsomes
Assay type: in vitro ADME
Details: up to 50 µM, without 30-min preincubation
Description: The inhibitory potential (IC50 values) of EAM-2201 on CYP1A2, CYP2A6, CYP2C8, CYP2C9, CYP2C19, CYP2D6 and CYP3A4 were evaluated using ultrapooled human liver microsomes and a cocktail of seven CYP substrates followed by LC-tandem mass spectrometry (LC-MS/MS) as previously described. […] Aliquots (5 µL) of the diluted supernatants were analyzed using LC-MS/MS. […]
The metabolites formed from CYP substrates were simultaneously quantified using our previously described LC-MS/MS method. […] Quantification was performed by selected reaction monitoring (SRM) of the [M + H]^+ ion and the related product ion for each metabolite: acetaminophen, 152.1 > 110.3; N-desethylamodiaquine, 328.1 > 283.0; 7-hydroxycoumarin, 163.0 > 107.2; 4-hydroxybupropion, 256.1 > 238.0; 4′-hydroxydiclofenac, 312.0 > 231.1; 4′-hydroxy-mephenytoin, 235.1 > 150.1; 1′-hydroxybufuralol, 278.1 > 186.1; 1′-hydroxymidazolam, 341.9 > 324.0; ^13C2,^15N-acetaminophen, 155.1 > 111.2; and d9-1′-hydroxybufuralol, 287.2 > 187.0. […]

Question: With CCc1ccc(C(=O)c2cn(CCCCCF)c3ccccc23)c2ccccc12 [EAM-2201, (4-ethyl-1-naphthalenyl)[1-(5-fluoropentyl)-1H-indol-3-yl]-methanone] as the compound, how does the “inhibition of CYP1A2-mediated phenacetin O-deethylation” value read?
Answer: negligibly inhibited
